In patent publication US8841312B2, “Fused pyridine, pyrimidine and triazine compounds as cell cycle inhibitors” (Amgen Inc., priority 2007, dated 2014) one finds IC50 data, which are given here for 49 molecules.

Sequence of Cdk4/CyclinD1 (P11802 whole entry): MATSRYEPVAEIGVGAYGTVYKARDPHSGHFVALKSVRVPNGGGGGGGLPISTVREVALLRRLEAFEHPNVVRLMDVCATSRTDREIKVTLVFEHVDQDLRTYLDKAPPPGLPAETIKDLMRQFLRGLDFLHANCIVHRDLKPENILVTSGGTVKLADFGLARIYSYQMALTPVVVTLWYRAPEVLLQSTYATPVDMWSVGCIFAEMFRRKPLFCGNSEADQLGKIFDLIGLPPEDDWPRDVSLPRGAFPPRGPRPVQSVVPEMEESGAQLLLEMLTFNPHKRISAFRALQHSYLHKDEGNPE
Sequence of Cdk4/CyclinD1 (P24385 whole entry partner): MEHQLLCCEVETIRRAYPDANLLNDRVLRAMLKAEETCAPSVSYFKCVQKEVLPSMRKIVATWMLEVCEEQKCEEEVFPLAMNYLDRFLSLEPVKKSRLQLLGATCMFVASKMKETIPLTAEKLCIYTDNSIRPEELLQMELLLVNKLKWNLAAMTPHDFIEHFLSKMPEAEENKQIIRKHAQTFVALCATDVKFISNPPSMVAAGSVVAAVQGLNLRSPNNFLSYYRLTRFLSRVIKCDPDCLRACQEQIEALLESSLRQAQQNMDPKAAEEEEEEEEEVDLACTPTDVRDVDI

The target of this test is Cdk4/CyclinD1 (Homo sapiens (Human), UniProt P11802). Description: Cdk4 kinase inhibition assay with recombinant Cdk4/CyclinD1, Rb substrate, [33P]-ATP filter plate. The format is biochemical. The conditions noted are these: 25 μM ATP, read-out: Cdk 4 IC50. How it is done:
The Cdk4 and Cdk6 inhibitory activity of the compounds is measured with a kinase inhibition assay using recombinant Cdk4/CyclinD1 or Cdk6/CyclinD3 protein complexes. The protein substrate used in the assay is the retinoblastoma protein (Rb). The kinase reactions are carried out in a 96-well filter plate (MSDV N6B50, Millipore). […] The mixture is incubated at room temperature for 1 hour and the proteins precipitated with an equal volume of 20% TCA. The plates are washed with 10% TCA according to the manufacturer's instruction and dried at room temperature. The amount of the phosphorylated Rb is determined with a TopCount (PerkinElmer). The IC50 of a compound is determined by nonlinear regression curve fitting using software program Prism 5 (GraphPad Software).
As to `Fc1nccc2c3cnc(Nc4ccc(OC5CCNCC5)nn4)nc3n(C3CCCC3)c12` [Example 269, 9-Cyclopentyl-8-fluoro-N-(6-(4-piperidinyloxy)-3-pyridazinyl)-9H-pyrido[4′,3′:4,5]pyrrolo[2,3-d]pyrimidin-2-amine], the concentration for half-maximal inhibition (IC50) amounted to 35 nM.

Regarding `O[C@@H]1CCN(c2ccc(Nc3ncc4c5ccncc5n([C@H]5CCC[C@@H]5O)c4n3)nn2)C1` [Example 408], the IC50 was 44 nM.

For `CC1CN(c2ccc(Nc3ncc4c5cc[nH]c(=O)c5n(C5CCCC5)c4n3)nc2)CC(C)N1` (stereo not shown) [Example 124], the IC50 came out at 17 nM.

Take `O=c1[nH]ccc2c3cnc(Nc4ccc(N5CCNCC5)nn4)nc3n(C3CCCC3)c12` [Example 122, 9-Cyclopentyl-2-((6-(1-piperazinyl)-3-pyridazinyl)amino)-7,9-dihydro-8H-pyrido[4′,3′:4,5]pyrrolo[2,3-d]pyrimidin-8-one]: the IC50 worked out at 8.7 nM.

In the case of `CC[C@H](C)n1c2cnccc2c2cnc(Nc3ccc(N4CCNC(C)(C)C4)cn3)nc21` [Example 328], the half-maximal inhibitory concentration (IC50) is 51 nM.

Turning to `CCN(CC)C1CCN(c2ccc(Nc3ncc4c5ccnc(F)c5n(C5CCCC5)c4n3)nn2)CC1` [Example 277, 9-Cyclopentyl-N-(6-(4-(diethylamino)-1-piperidinyl)-3-pyridazinyl)-8-fluoro-9H-pyrido[4′,3′:4,5]pyrrolo[2,3-d]pyrimidin-2-amine], the IC50 came to 18 nM.

With `CC[C@H](C)n1c2cnccc2c2cnc(Nc3ccc(N4CC[C@@H](O)C4)nn3)nc21` [Example 337], the half-inhibitory concentration (IC50) was 22 nM.

As for `CN(C)C1CCN(c2ccc(Nc3ncc4c5ccncc5n([C@@H]5CCOC5)c4n3)nn2)CC1` [Example 391], the IC50 is 184 nM.

For the molecule `O=C(c1ccc(Nc2ncc3c4ccnc(F)c4n(C4CCCC4)c3n2)nc1)N1CCNCC1` [Example 222, 9-cyclopentyl-8-fluoro-N-(5-(1-piperazinylcarbonyl)-2-pyridinyl)-9H-pyrido[4′,3′:4,5]pyrrolo[2,3-d]pyrimidin-2-amine], the concentration for half-maximal inhibition (IC50) came to 6 nM.

In the case of `CN(C)C1CCN(c2ccc(Nc3ncc4c5ccncc5n(C5CCS(=O)(=O)CC5)c4n3)nc2)CC1` [Example 280, N-(5-(4-(dimethylamino)-1-piperidinyl)-2-pyridinyl)-9-(1,1-dioxidotetrahydro-2H-thiopyran-4-yl)-9H-pyrido[4′,3′:4,5]pyrrolo[2,3-d]pyrimidin-2-amine], the half-inhibitory concentration (IC50) stood at 59 nM.

As to `C[C@H](O)Cn1c2cnccc2c2cnc(Nc3ccc(N4CC[C@@H](O)C4)cn3)nc21` [Example 424], the IC50 worked out at 72 nM.

On to `CN(C)CC(=O)N1CCN(c2ccc(Nc3ncc4c5ccnc(F)c5n(C5CCCC5)c4n3)nc2)CC1` [Example 193, 9-Cyclopentyl-N-(5-(4-((dimethylamino)acetyl)-1-piperazinyl)-2-pyridinyl)-8-fluoro-9H-pyrido[4′,3′:4,5]pyrrolo[2,3-d]pyrimidin-2-amine], for which the IC50 came out at 68 nM.

Consider `c1cc2c3cnc(Nc4ccc(OC5CCNCC5)nn4)nc3n(C3CCCC3)c2cn1` [Example 268, 9-Cyclopentyl-N-(6-(4-piperidinyloxy)-3-pyridazinyl)-9H-pyrido[4′,3′:4,5]pyrrolo[2,3-d]pyrimidin-2-amine], for which the half-inhibitory concentration (IC50) is 11 nM.

Turning to `CC1CCN(c2ccc(Nc3ncc4c5ccncc5n(C5CCCC5)c4n3)nc2)C1` (stereo not shown) [Example 74], the IC50 amounted to 56 nM.

`CC[C@H](C)n1c2cnccc2c2cnc(Nc3ccc(N4CCC(N(C)C)CC4)cn3)nc21` [Example 326]: the concentration for half-maximal inhibition (IC50) was 620 nM.

For the molecule `CN1CCN(c2cnc(Nc3ncc4c5ccncc5n(C5CCCC5)c4n3)cn2)CC1` [Example 78], the IC50 was found to be 15 nM.

In the case of `CN(C)C1CCN(c2ccc(Nc3ncc4c5cc[nH]c(=O)c5n(C5CCCC5)c4n3)nn2)CC1` [Example 127], the IC50 came out at 5.3 nM.

Take `C[C@@H](O)Cn1c2cnccc2c2cnc(Nc3ccc(N4CCNC(C)(C)C4)nn3)nc21` [Example 418]: the concentration for half-maximal inhibition (IC50) is 112 nM.

In the case of `C[C@H](O)Cn1c2cnccc2c2cnc(Nc3ccc(N4CCN[C@@H](C)C4)cn3)nc21` [Example 423], the IC50 is 75 nM.

`C[C@@H](CO)n1c2cnccc2c2cnc(Nc3ccc(N4CCC(N(C)C)CC4)cn3)nc21` [Example 370]: the IC50 is 161 nM.

With `C[C@H](CO)n1c2cnccc2c2cnc(Nc3ccc(N4CCNCC4)nn3)nc21` [Example 384], the IC50 is 143 nM.

In the case of `CC1(C)CN(c2ccc(Nc3ncc4c5ccncc5n([C@@H]5CCOC5)c4n3)nn2)CCN1` [Example 430], the 50% inhibitory concentration (IC50) is 21 nM.

With `CNC1CCN(c2ccc(Nc3ncc4c5ccncc5n(C[C@H](C)O)c4n3)nn2)CC1` [Example 411], the IC50 amounted to 430 nM.

As for `c1cc2c3cnc(Nc4ccc(N5CCC(N6CCCC6)CC5)cn4)nc3n(C3CCCC3)c2nn1` [Example 201, 9-cyclopentyl-N-(5-(4-(1-pyrrolidinyl)-1-piperidinyl)-2-pyridinyl)-9H-pyrimido[5′,4′:4,5]pyrrolo[2,3-c]pyridazin-7-amine], the IC50 is 26 nM.

Take `C[C@@H](O)Cn1c2cnccc2c2cnc(Nc3ccc(N4CCC(N(C)C)CC4)nn3)nc21` [Example 416]: the 50% inhibitory concentration (IC50) is 271 nM.

As for `O[C@H]1CCC[C@@H]1n1c2cnccc2c2cnc(Nc3ccc(N4CCNCC4)cn3)nc21` [Example 398], the IC50 came out at 330 nM.

Take `CN(C)C1CCN(c2ccc(Nc3ncc4c5ccncc5n([C@H]5CCOC5)c4n3)nc2)CC1` [Example 394]: the IC50 turned out to be 1190 nM.

On to `CC1(C)CCC(n2c3nc(Nc4ccc(N5CCC(N6CCCC6)CC5)cn4)ncc3c3ccnc(O)c32)CC1` [Example 210, 9-(4,4-dimethylcyclohexyl)-2-((5-(4-(1-pyrrolidinyl)-1-piperidinyl)-2-pyridinyl)amino)-9H-pyrido[4′,3′:4,5]pyrrolo[2,3-d]pyrimidin-8-ol], for which the 50% inhibitory concentration (IC50) came to 6.6 nM.

Take `O[C@@H]1CCN(c2ccc(Nc3ncc4c5ccncc5n([C@@H]5CCOC5)c4n3)nn2)C1` [Example 392]: the concentration for half-maximal inhibition (IC50) came to 219 nM.

As to `NCC1CCCN(c2ccc(Nc3ncc4c5ccncc5n(C5CCCC5)c4n3)nc2)C1` (stereo not shown) [Example 67], the IC50 was 1.3 nM.

As for `CNC1CCN(c2ccc(Nc3ncc4c5ccncc5n([C@H]5CCC[C@H]5O)c4n3)nn2)CC1` [Example 364], the IC50 is 258 nM.

Take `COc1nccc2c3cnc(Nc4ccc(N5CCC(N6CCCC6)CC5)cn4)nc3n(C3CCC(C)(C)CC3)c12` [Example 209, 9-(4,4-dimethylcyclohexyl)-8-methoxy-N-(5-(4-(1-pyrrolidinyl)-1-piperidinyl)-2-pyridinyl)-9H-pyrido[4′,3′:4,5]pyrrolo[2,3-d]pyrimidin-2-amine]: the half-inhibitory concentration (IC50) stood at 11 nM.

Turning to `COC(=O)CC1CCN(c2ccc(Nc3ncc4c5ccnc(F)c5n(C5CCCC5)c4n3)nc2)CC1` [Example 174, Methyl (1-(6-((9-cyclopentyl-8-fluoro-9H-pyrido[4′,3′:4,5]pyrrolo[2,3-d]pyrimidin-2-yl)amino)-3-pyridinyl)-4-piperidinyl)acetate], the concentration for half-maximal inhibition (IC50) came out at 33 nM.

`c1cc2c3cnc(Nc4ccc(N5CCC6(CC5)COCCN6)nn4)nc3n(C3CCCC3)c2cn1` [Example 249, 9-cyclopentyl-N-(6-(4-oxa-1,9-diazaspiro[5.5]undec-9-yl)-3-pyridazinyl)-9H-pyrido[4′,3″:4,5]pyrrolo[2,3-d]pyrimidin-2-amine]: the half-inhibitory concentration (IC50) came out at 4.4 nM.

For `CNC1CCN(c2ccc(Nc3ncc4c5ccncc5n([C@@H]5CCNC5)c4n3)nc2)CC1` [Example 340], the IC50 stood at 370 nM.

Take `CN(C)C1CCN(c2nc(Nc3ncc4c5ccncc5n(C5CCCC5)c4n3)ns2)CC1` [Example 134]: the 50% inhibitory concentration (IC50) stood at 190 nM.

With `CN1CCN(c2ccc(Nc3ncc4c5cc[nH]c(=O)c5n(C5CCCC5)c4n3)nn2)CC1` [Example 128], the IC50 was found to be 29 nM.

For `C[C@H](O)Cn1c2cnccc2c2cnc(Nc3ccc(N4CCC(N(C)C)CC4)cn3)nc21` [Example 422], the half-maximal inhibitory concentration (IC50) is 69 nM.

For the molecule `CC[C@H](C)n1c2cnccc2c2cnc(Nc3ccc(N4CCC(NC)CC4)cn3)nc21` [Example 335], the concentration for half-maximal inhibition (IC50) was 1630 nM.

As for `CC1CN(c2ccc(Nc3ncc4c5cc[nH]c(=O)c5n(C5CCCC5)c4n3)nn2)CC(C)N1` (stereo not shown) [Example 125], the concentration for half-maximal inhibition (IC50) turned out to be 12 nM.

Consider `C[C@H](O)Cn1c2cnccc2c2cnc(Nc3ccc(N4CCC(N(C)C)CC4)nn3)nc21` [Example 410], for which the IC50 worked out at 240 nM.

On to `CNC1CCN(c2ccc(Nc3ncc4c5ccncc5n([C@H](C)CO)c4n3)nn2)CC1` [Example 386], for which the 50% inhibitory concentration (IC50) is 53 nM.

With `c1cc2c3cnc(Nc4ccc(NCC5COCCN5)nn4)nc3n(C3CCCC3)c2cn1` (stereo not shown) [Example 100], the IC50 was 6.2 nM.

On to `CN(C)C1CCN(c2ccc(Nc3ncc4c5ccnc(O)c5n(C5CCC(C)(C)CC5)c4n3)nn2)CC1` [Example 211, 2-((6-(4-(dimethylamino)-1-piperidinyl)-3-pyridazinyl)amino)-9-(4,4-dimethylcyclohexyl)-9H-pyrido[4′,3′:4,5]pyrrolo[2,3-d]pyrimidin-8-ol], for which the IC50 came to 9.8 nM.

Take `N[C@@H]1CCN(c2cnc(Nc3ncc4c5ccncc5n(C5CCCC5)c4n3)cn2)C1` [Example 90]: the IC50 turned out to be 5.6 nM.

As to `COC1CCN(c2ccc(Nc3ncc4c5ccncc5n(C5CCCC5)c4n3)nn2)C1` (stereo not shown) [Example 110], the IC50 was 3.4 nM.

As for `C[C@H](O)Cn1c2cnccc2c2cnc(Nc3ccc(N4CCNC(C)(C)C4)nn3)nc21` [Example 413], the IC50 was 33 nM.

As for `OC[C@H]1CN(c2ccc(Nc3ncc4c5ccncc5n(C5CCCC5)c4n3)nc2)CCN1` [Example 197, ((2R)-4-(6-((9-Cyclopentyl-9H-pyrido[4′,3′:4,5]pyrrolo[2,3-d]pyrimidin-2-yl)amino)-3-pyridinyl)-2-piperazinyl)methanol], the half-inhibitory concentration (IC50) turned out to be 4.2 nM.

With `N#CC1CCN(c2ccc(Nc3ncc4c5ccncc5n(C5CCCC5)c4n3)nn2)C1` (stereo not shown) [Example 118], the IC50 worked out at 4.2 nM.

Broadly, the IC50 is the concentration needed to halve the response being measured.
